Assays:
[1] = target: T1, human TREK-1 (hTREK-1) (Homo sapiens, UniProt O95069); assay: TREK-1 thallium flux assay (CHO-K1 cells stably expressing hTREK-1); assay type: cell-based; settings: human TREK-1, thallium flux; read-out: h TREK-1 Tl+ IC50
T1 construct: expressed in transfected cells
T1 sequence (O95069 1-426): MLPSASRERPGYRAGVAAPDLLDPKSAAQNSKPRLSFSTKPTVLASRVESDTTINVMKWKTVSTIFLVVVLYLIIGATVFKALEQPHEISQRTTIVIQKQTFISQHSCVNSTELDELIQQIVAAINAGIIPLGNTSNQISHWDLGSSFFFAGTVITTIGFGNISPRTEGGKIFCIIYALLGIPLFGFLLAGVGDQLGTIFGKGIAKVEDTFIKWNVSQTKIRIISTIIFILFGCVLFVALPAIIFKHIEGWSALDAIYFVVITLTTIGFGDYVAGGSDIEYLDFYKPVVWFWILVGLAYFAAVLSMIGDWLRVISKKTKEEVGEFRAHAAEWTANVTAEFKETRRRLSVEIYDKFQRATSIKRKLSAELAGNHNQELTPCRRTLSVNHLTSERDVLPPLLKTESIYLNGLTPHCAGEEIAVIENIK
Protocol: Procedures for Biological Experiments
TREK-1 Thallium flux assay
CHO-K1 cells stably expressing hTREK-1 were cultured in T225 flask. The cells were loaded with FluxOR dye and plated in 384 well plate at the experiment day. Test compounds or control compound (tert-butyl (3-((4-(benzyloxy)-2-methylphenyl)carbamoyl)-4-chlorophenyl)carbamate) or 0.3% DMSO (vehicle control) were added directly to the cell plates and incubated for 10 min, and then treated with thallium stimulus buffer to initiate thallium flux.
To measure the efficacy and potency of test compounds, the change in fluorescence intensity (ΔRatio) and % inhibition were calculated using the following equations:
ΔRatio = (fluorescence intensity at 25 seconds after thallium addition)/(average of fluorescent intensity before thallium addition)
(§1) 0.3% DMSO - ΔRatio of 10 μM control compound)}x100
(§2) % inhibition vs compound concentration were plotted in XLfit and calculated IC50.
CHO-K1 cells stably expressing human TREK-1 (hTREK-1) were cultured in T225 flask.
The cells were loaded with FluxOR dye and plated in 384 well plate at the experiment day. Test compounds or control compound (tert-butyl (3-((4-(benzyloxy)-2-methylphenyl)carbamoyl)-4-chlorophenyl)carbamate) or 0.3% DMSO (vehicle control) which were prepared on separate plates were added to the cell plates and incubated for 10 min, and then the cells with test compounds or […]
chlorophenyl)carbamate) or 0.3% DMSO (vehicle control) were treated with thallium stimulus buffer to initiate thallium flux. To measure the efficacy and potency of test compounds, the change in fluorescence intensity (ΔRatio) and % inhibition were calculated using the following equations: […]

[2] = ChromatoLogD; assay type: physicochemical
[3] = Liver microsome intrinsic clearance, human; assay type: in vitro ADME; settings: pH 7.4; human liver microsomes, predicted intrinsic clearance; read-out: LMS CLINT human
Protocol: (§3) were incubated in 100 mM potassium phosphate pH 7.4 buffer with 3 mM MgCl2 at 37 °C with constant shaking. After a 5 min preincubation, the reaction was initiated by the addition of NADPH (1 mM). At selected time intervals (0, 3, 7, 15, 25, and 45 min), aliquots were taken and subsequently placed into a 96-well plate containing cold acetonitrile with internal standard (50 ng/mL carbamazepine). Plates were then centrifuged at 3000 rcf (4 °C) for 10 min, and the supernatant was transferred to a separate 96-well plate and diluted 1:1 with water for LC/MS/MS analysis. The in vitro half-life ( 1/2, min, Eq. 1), intrinsic clearance (CLint, mL/min/kg, Eq. 2), and subsequent predicted hepatic clearance (CLhep, mL/min/kg, Eq. 3) was determined employing the […]
(§4) where k represents the slope from linear regression analysis of the natural log percent remaining of a test compound as a function of incubation time […]
(§5) (2) CLint = in vitroT x mg microsomes x gram liver x kg body wt ascale-up factors: of 20 (human) or 45 (rat) […]
(§6) where Qh (hepatic blood flow, mL/min/kg) is 21 (human) or 70 (rat).
(§7) LC/MS/MS Bioanalysis of Samples from Plasma Protein Binding and Intrinsic Clearance […]
(§8) Samples were analyzed on a Thermo Electron TSQ Quantum Ultra triple quad mass spectrometer (San Jose, CA) via electrospray ionization (ESI) with two Themo Electron Accella pumps (San Jose, CA), and a Leap Technologies CTC PAL autosampler (Carrboro, NC). Analytes were […]

[4] = Liver microsome intrinsic clearance, mouse; assay type: in vitro ADME; settings: pH 7.4; mouse liver microsomes, predicted intrinsic clearance; read-out: LMS CLINT mouse
[5] = Plasma protein binding, rat; assay type: in vitro ADME; settings: rat, plasma, pH 7.4, rat plasma, bound; read-out: PPB rat (converted)
Protocol: (§9) Plasma protein binding and Brain homogenate binding: Determination of fraction unbound (f u) in plasma was conducted in vitro via equilibrium dialysis using HTDialysis (HTD) membrane plates. The top half of the plate was filled with 100 uL of Dubelco’s Phosphate Buffered Saline, pH 7.4 (DPBS). Compounds were diluted into plasma from each species (5 µM final concentration), which was aliquoted in triplicate to the ‘bottom half’ of the prepared HTD plate wells. The HTD plate was sealed and incubated for 6 hours at 37 °C. Following incubation, each well (both top and bottom halves) were transferred (20 µL) to the corresponding wells of a 96-shallow-well (V-bottom) plate. The daughter plates were then matrix-matched (DPBS side wells received equal volume of plasma, and plasma side wells received equal volume of DPBS), and extraction solution (120 µL; acetonitrile containing 50 nM carbamazepine as IS) was added to all wells of both daughter plates to precipitate protein and extract test article. The plates were then sealed and centrifuged (3500 rcf) for 10 minutes at ambient temperature. Supernatant (60 µL) from each well of the daughter plates was then transferred to the corresponding wells of new daughter plates (96-shallow-well, V bottom) containing water (Milli-Q, 60 µL/well), and the plates were sealed in preparation for LC-MS/MS analysis (see LC-MS/MS analysis method below).
(§10) The unbound fraction (f u) was calculated following the equation below, and mean values for each species were calculated from 3 replicates. […]
(§11) Fraction unbound for both plasma and brain samples was determined using Equation 4.
(§12) Equation 4 Determination of fraction unbound in plasma. […]

[6] = Plasma protein binding, mouse; assay type: in vitro ADME; settings: mouse, plasma, pH 7.4, mouse plasma, bound; read-out: PPB mouse (converted)
Protocol: as §9, §10, §11, §12

[7] = Liver microsome intrinsic clearance, rat; assay type: in vitro ADME; settings: pH 7.4; rat liver microsomes, predicted intrinsic clearance; read-out: LMS CLINT rat
Protocol: as §3, §4, §5, §6, §7, §8

[8] = target: T2, human TREK-2 (hTREK-2) (Homo sapiens, UniProt P57789); assay: TREK-2 thallium flux assay (HEK293 cells stably expressing hTREK-2); assay type: cell-based; settings: human TREK-2, thallium flux; read-out: h TREK-2 Tl+ IC50
T2 construct: expressed in transfected cells
T2 sequence (P57789 1-538): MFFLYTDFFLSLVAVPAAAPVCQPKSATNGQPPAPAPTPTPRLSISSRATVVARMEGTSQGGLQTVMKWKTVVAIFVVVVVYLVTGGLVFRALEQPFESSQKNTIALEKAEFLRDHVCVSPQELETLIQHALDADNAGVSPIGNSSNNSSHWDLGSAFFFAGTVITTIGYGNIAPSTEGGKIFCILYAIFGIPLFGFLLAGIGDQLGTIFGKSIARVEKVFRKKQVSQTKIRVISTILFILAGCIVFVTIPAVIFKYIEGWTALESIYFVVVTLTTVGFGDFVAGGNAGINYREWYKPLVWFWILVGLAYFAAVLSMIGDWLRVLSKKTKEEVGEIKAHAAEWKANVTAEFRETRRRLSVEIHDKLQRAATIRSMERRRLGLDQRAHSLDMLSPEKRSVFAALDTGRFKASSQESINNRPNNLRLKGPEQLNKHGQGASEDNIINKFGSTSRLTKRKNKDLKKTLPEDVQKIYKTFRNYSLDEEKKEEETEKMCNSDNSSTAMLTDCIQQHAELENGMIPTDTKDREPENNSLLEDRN
Protocol: as §1, §2
TREK-2 Thallium flux assay
HEK293 cells stably expressing human TREK-2 (hTREK-2) are plated in 384-well plates, cultured overnight, loaded with Thallos dye the following day. Test compounds or control compound (tert-butyl (3-((4-(benzyloxy)-2-methylphenyl)carbamoyl)-4-chlorophenyl)carbamate) or 0.3% DMSO (vehicle control) which are prepared on separate plates are added to the cell plates and incubated for 10 min, and then the cells were treated with thallium stimulus buffer to initiate […]
To measure the efficacy and potency of test compounds, the change in fluorescence intensity (ΔRatio) and % inhibition are calculated using the following equations: […]

Compound | IC50 [1] | IC50 [8] | other results
Cc1cc(C#Cc2ccccc2)cnc1NC(=O)c1c(Cl)cnn1CC1COCCO1 (centres unmarked) [Compound 8, 1-((1,4-Dioxan-2-yl)methyl)-4-chloro-N-(3-methyl-5-(phenylethynyl)pyridin-2-yl)-1H-pyrazole-5-carboxamide] | 670 nM |  | 
Cc1cc(C#Cc2ccccc2)cnc1NC(=O)c1cc(-c2noc(C3CCOC3)n2)ccc1Cl (centres unmarked) [Compound 13b, 2-Chloro-N-(3-methyl-5-(phenylethynyl)pyridin-2-yl)-5-(5-(tetrahydrofuran-3-yl)-1,2,4-oxadiazol-3-yl)benzamide] | 48 nM |  | chromatographic logD [2]: 5.01; CLint scaled at 1 µM [3]: 71 mL/min/kg; CLint scaled at 1 µM [4]: 68 mL/min/kg
Cc1cc(C#Cc2ccccc2)cnc1NC(=O)c1cc(NC(=O)OC(C)(C)C)ccc1Cl [Compound 13e] | 140 nM |  | chromatographic logD [2]: 5.15
Cc1cc(C#Cc2ccccc2)cnc1NC(=O)c1c(Cl)cnn1CC1CCOCC1 [Compound 14b, 4-Chloro-N-(3-methyl-5-(phenylethynyl)pyridin-2-yl)-1-((tetrahydro-2H-pyran-4-yl)methyl)-1H-pyrazole-5-carboxamide] | 200 nM |  | 
Cc1cc(C#Cc2ccccc2)cnc1NC(=O)c1c(Cl)cnn1-c1ccc2c(cnn2C)c1 [Compound 15c, 4-Chloro-1-(1-methyl-1H-indazol-5-yl)-N-(3-methyl-5-(phenylethynyl)pyridin-2-yl)-1H-pyrazole-5-carboxamide] | 84 nM |  | fraction unbound at 6 h, 5 µM [5]: 0.002
Cc1cc(C#Cc2ccccc2)cnc1NC(=O)c1c(Cl)cnn1CCCC#N [Compound 15d, 4-Chloro-1-(3-cyanopropyl)-N-(3-methyl-5-(phenylethynyl)pyridin-2-yl)-1H-pyrazole-5-carboxamide] |  |  | fraction unbound at 6 h, 5 µM [6]: 0.001; CLint scaled at 1 µM [3]: 9 mL/min/kg; CLint scaled at 1 µM [7]: 30 mL/min/kg
CC(=O)N1C[C@H]2C[C@H](n3ncc(Cl)c3C(=O)Nc3ncc(C#Cc4ccccc4)cc3C)C[C@H]2C1 [Compound 15g, 1-((3aR,5s,6aS)-2-Acetyloctahydrocyclopenta[c]pyrrol-5-yl)-4-chloro-N-(3-methyl-5-(phenylethynyl)pyridin-2-yl)-1H-pyrazole-5-carboxamide] |  |  | fraction unbound at 6 h, 5 µM [5]: 0.009

Continued, in another order:

IC50 [1] | IC50 [8] | Compound | other results
98 nM | 280 nM | CC(=O)N1CCC(n2ncc(Cl)c2C(=O)Nc2ncc(C#Cc3ccccc3)cc2C)C(F)C1 (centres unmarked) [Compound 16a, 1-(1-Acetyl-3-fluoropiperidin-4-yl)-4-chloro-N-(3-methyl-5-(phenylethynyl)pyridin-2-yl)-1H-pyrazole-5-carboxamide] | 
96 nM | 290 nM | CC(=O)N1CC[C@@H](n2ncc(Cl)c2C(=O)Nc2ncc(C#Cc3ccccc3)cc2C)[C@H](F)C1 [Compound 16b, 1-((3R,4R)-1-Acetyl-3-fluoropiperidin-4-yl)-4-chloro-N-(3-methyl-5-(phenylethynyl)pyridin-2-yl)-1H-pyrazole-5-carboxamide] | CLint scaled at 1 µM [3]: 13 mL/min/kg; CLint scaled at 1 µM [7]: 94 mL/min/kg
160 nM | 530 nM | CC(=O)N1CC[C@@H](n2ncc(Cl)c2C(=O)Nc2ncc(C#Cc3ccccc3)cc2C)[C@@H](F)C1 [Compound 16c, 1-((3S,4R)-1-Acetyl-3-fluoropiperidin-4-yl)-4-chloro-N-(3-methyl-5-(phenylethynyl)pyridin-2-yl)-1H-pyrazole-5-carboxamide] | 
 | 530 nM | CC(=O)N1CC[C@H](n2ncc(Cl)c2C(=O)Nc2ncc(C#Cc3ccccc3)cc2C)[C@H](F)C1 [Compound 16d, 1-((3R,4S)-1-Acetyl-3-fluoropiperidin-4-yl)-4-chloro-N-(3-methyl-5-(phenylethynyl)pyridin-2-yl)-1H-pyrazole-5-carboxamide] | 
70 nM | 330 nM | CC(=O)N1CC[C@H](n2ncc(Cl)c2C(=O)Nc2ncc(C#Cc3ccccc3)cc2F)[C@H](F)C1 [Compound 16e, 1-((3R,4S)-1-Acetyl-3-fluoropiperidin-4-yl)-4-chloro-N-(3-fluoro-5-(phenylethynyl)pyridin-2-yl)-1H-pyrazole-5-carboxamide] | 
 | 470 nM | CC(=O)N1CC[C@H](n2ncc(Cl)c2C(=O)Nc2ncc(C#Cc3ccccc3)cc2F)[C@@H](F)C1 [Compound 16f, 1-((3S,4S)-1-Acetyl-3-fluoropiperidin-4-yl)-4-chloro-N-(3-fluoro-5-(phenylethynyl)pyridin-2-yl)-1H-pyrazole-5-carboxamide] | 
